For orientation: pIC50 means the negative decadic logarithm of the IC50, by convention in mol/L.

Data on eight molecules can be found in patent US9981970B2, “Bicyclic ureas and thiadiazolidine-1, 1-dioxides as CETP inhibitors” (Merck Sharp & Dohme Corp., priority 2013, dated 2018).

pIC50: −log10 of the molar value.

Tested on in the first assay: not given
Experiment: not given
The note with it: patients on anacetrapib with baseline statin therapy compared with patients treated with just a statin; cited from earlier work.
Consider `COc1cc(F)c(C(C)C)cc1-c1ccc(C(F)(F)F)cc1CN1C(=O)O[C@H](c2cc(C(F)(F)F)cc(C(F)(F)F)c2)[C@@H]1C` [anacetrapib], for which the “decrease of LDL-C” value was 40% and the “increase of HDL-C” value is given as 138%.

Another assay addresses T1, endogenous CETP from serum (Homo sapiens, UniProt P11597).
T1 construct: yielding a concentration of approximately 15 nM endogenous CETP in the assay; from tissue; host or cells: human serum
T1 sequence (P11597 18-493): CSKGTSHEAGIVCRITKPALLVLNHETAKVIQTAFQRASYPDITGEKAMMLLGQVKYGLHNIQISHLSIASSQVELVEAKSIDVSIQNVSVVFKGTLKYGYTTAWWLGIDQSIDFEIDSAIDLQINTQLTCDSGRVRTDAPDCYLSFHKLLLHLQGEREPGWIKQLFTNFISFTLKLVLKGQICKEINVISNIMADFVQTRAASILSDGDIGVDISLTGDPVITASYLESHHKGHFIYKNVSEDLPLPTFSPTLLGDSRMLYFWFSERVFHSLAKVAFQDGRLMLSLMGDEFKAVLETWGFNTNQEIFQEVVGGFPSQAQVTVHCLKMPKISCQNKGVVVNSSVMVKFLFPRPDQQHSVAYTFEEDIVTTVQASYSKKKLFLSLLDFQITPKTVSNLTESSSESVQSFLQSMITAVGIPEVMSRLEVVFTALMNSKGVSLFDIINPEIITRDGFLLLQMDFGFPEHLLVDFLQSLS
The assay is described as follows: RTA assay in 95% human serum (in vitro radioactive assay of CETP-catalyzed CE and TG transfer). It is filed as biochemical. The note with it: Table 1; data generally obtained using the RTA assay in 95% human serum; read-out: IC50. From the text: In Vitro Radioactive Assays of CETP-Catalyzed CE and TG Transfer (RTA Assay)
Reagents and sources are: [3H] cholesteryl oleate (GE #TRK.886), [3H] Triolein (Perkin-Elmer NET-431), Butylated hydroxyl toluene (Aldrich, #D4740-4), DOPC (Sigma, # P6354), Sodium Bromide (Fisher scientific #S255-500), PEG 8000 (Fisher, #BP233-1), and human HDL (Intracel Corp #RP-036).
Both assays measure the transfer of [3H] cholesteryl oleate or [3H] triolein from exogenous LDL to HDL.
Radiolabeled donor particles are generated by first combining 100 μl of 200 μM butylated hydroxyl toluene in CHCl3, 216 μL of 21.57 mM DOPC in EtOH, and either 500 μCi [3H]-triolein (Perkin Elmer #NET-431) or 500 μCi [3H]-cholesteryl oleate (GE #TRK886) in a glass tube. Reagents are mixed, dried under nitrogen, and then resuspended in 2 mL of 50 mM Tris, 27 μM EDTA at pH 7.4. After a brief vortex, the solution is sonicated until clear and mixed with 20 mL of fresh human serum. The mixture is incubated overnight at 37° C. The [3H] labeled LDL substrate is separated at 1.063 g/ml density by sequential ultracentrifugal flotation in NaBr according to the method of Havel, Eder, et al., 1955, and Chapman, Goldstein, et al., 1981. Once isolated the particles are dialyzed 3× in CETP buffer (50 mM Tris, pH 7.4, 100 mM NaCl, 1 mM EDTA). Human HDL is purchased from Intracel and used as the acceptor particles.
Transfer assays are performed in a 96-well v-bottom polypropylene plate. For the RTA using recombinant CETP (2% RTA), an assay cocktail is prepared with the final concentrations 128 μg/mL HDL, 20 nM rCETP, 2% human serum, and 1×CETP buffer. 1 μL of each test compound diluted in DMSO is added to 47 μL of assay cocktail per well and incubated at 37° C. for 1 hour. To initiate the transfer reaction, 2 μL radiolabeled LDL is added. After an additional 60 min of incubation at 37° C., the transfer action is terminated by precipitation of LDL with an equal volume of 20% WN PEG 8000. The plates are centrifuged at 2000 rpm for 30 minutes at 4° C. A 40 μL aliquot of the HDL-containing supernatant is transferred to a Packard Optiplate™ with 200 μL of MicroScint™ 20. After mixing, plates are counted by liquid scintillation. Counts present in the supernatant for blanks (wells containing only HDL acceptor, CETP buffer and DMSO) are subtracted from those containing test compounds and used to correct for non-specific transfer.
This is then combined with HDL and CETP buffer and the reaction proceeds as above and is terminated as described.
Comparison of the counts of samples with inhibitors to an uninhibited (DMSO only) positive control yield a percent inhibition. A plot of percent inhibition vs. log of inhibitor concentration, fit to a Sigmoidal 4 parameter equation is used to calculate IC50.
Starting materials are commercially available or are made using known procedures or as shown below. The examples may be synthesized according to the general schemes provided below and by using the synthetic intermediates that are described. […] When compounds of Formula I are mentioned herein, such compounds include compounds defined generically by Formula I and also the specific examples disclosed herein.
Regarding `COc1ncc(-c2ccc(C(=O)O)cc2C)cc1-c1ccc(C(F)(F)F)cc1[C@@H]1CC[C@H]2[C@@H](c3ccnc(C(F)(F)F)c3)NC(=O)N12` [Example 18, 4-{6-methoxy-5-[2-{(1R,5S,7aS)-3-oxo-1-[2-(trifluoromethyl)pyridin-4-yl]hexahydro-1H-pyrrolo[1,2-c]imidazol-5-yl}-4-(trifluoromethyl)phenyl]pyridin-3-yl}-3-methylbenzoic acid], the negative-log IC50 (pIC50) is 5.30.

For `COc1ccc(-c2ccc(C(=O)O)cc2C)cc1-c1ccc(C(F)(F)F)cc1[C@@H]1CC[C@H]2[C@@H](c3ccnc(C(F)(F)F)c3)NC(=O)N12` [Example 19, 4′-methoxy-2-methyl-2″-{(1R,5S,7aS)-3-oxo-1-[2-(trifluoromethyl)pyridin-4-yl]hexahydro-1H-pyrrolo[1,2-c]imidazol-5-yl}-4″-(trifluoromethyl)-1,1′:3′,1″-terphenyl-4-carboxylic acid], the pIC50 is 5.31. The same measure, in the same setting: for `COc1ccc(-c2ccc(C(=O)O)cc2C)cc1-c1cnc(C(F)(F)F)cc1[C@@H]1CC[C@H]2[C@@H](c3cc(C(F)(F)F)cc(C(F)(F)F)c3)NC(=O)N12` [Example 20, 3′-[4-{(1R,5S,7aS)-1-[3,5-bis(trifluoromethyl)phenyl]-3-oxohexahydro-1H-pyrrolo[1,2-c]imidazol-5-yl}-6-(trifluoromethyl)pyridin-3-yl]-4′-methoxy-2-methylbiphenyl-4-carboxylic acid] the value was 5.80; for `COc1ccc(-c2ccc(C(=O)O)cc2C)cc1-c1ccc(C(F)(F)F)cc1[C@@H]1CC[C@H]2[C@@H](c3cc(C(F)(F)F)cc(C(F)(F)F)c3)NS(=O)(=O)N12` [Example 22, 2″-{(3R,3aS,6S)-3-[3,5-bis(trifluoromethyl)phenyl]-1,1-dioxidohexahydropyrrolo[1,2-b][1,2,5]thiadiazol-6-yl}-4′-methoxy-2-methyl-4″-(trifluoromethyl)-1,1′,:3′,1″-terphenyl-4-carboxylic acid], 6.01; for `COc1ccc(C2CCC(C(=O)O)CC2)cc1-c1ccc(C(F)(F)F)cc1[C@@H]1CC[C@H]2[C@@H](c3cc(C(F)(F)F)cc(C(F)(F)F)c3)NS(=O)(=O)N12` (stereo partly drawn) [Example 23, 4-[2′-{(3R,3aS,6S)-3-[3,5-bis(trifluoromethyl)phenyl]-1,1-dioxidohexahydropyrrolo[1,2-b][1,2,5]thiadiazol-6-yl}-6-methoxy-4′-(trifluoromethyl)biphenyl-3-yl]cyclohexanecarboxylic acid], 6.57. Take `COc1ncc(-c2ccc(C(=O)O)cc2C)cc1-c1ccc(C(F)(F)F)cc1[C@@H]1CC[C@H]2[C@@H](c3cc(F)cc(C(F)(F)F)c3)NS(=O)(=O)N12` [Example 24, 4-{5-[2-{(3R,3aS,6S)-3-[3-fluoro-5-(trifluoromethyl)phenyl]-1,1-dioxidohexahydropyrrolo[1,2-b][1,2,5]thiadiazol-6-yl}-4-(trifluoromethyl)phenyl]-6-methoxypyridin-3-yl}-3-methylbenzoic acid]: the negative-log IC50 (pIC50) is 5.90.

On to `COc1ccc(CCC(=O)O)cc1-c1ccc(C(F)(F)F)cc1[C@@H]1CC[C@H]2[C@@H](c3cc(F)cc(C(F)(F)F)c3)NS(=O)(=O)N12` [Example 25, 3-[2′-{(3R,3aS,6S)-3-[3-fluoro-5-(trifluoromethyl)phenyl]-1,1-dioxidohexahydropyrrolo[1,2-b][1,2,5]thiadiazol-6-yl}-6-methoxy-4′-(trifluoromethyl)biphenyl-3-yl]propanoic acid], for which the pIC50 is 5.51.
